Reference: paper PMC8100298, “Histone deacetylase inhibitor resminostat in combination with sorafenib counteracts platelet-mediated pro-tumoral effects in hepatocellular carcinoma” (Scientific Reports, 2021)
pEC50: −log10 of the molar value. Where two headings read alike, the source gives them in different places.

How the values were obtained:
Format in all cases: cell-based
[1] = tested on: HCC cells; assay: Western blots for acetylated α-Tubulin and p21; settings: 1 µM or 3 µM, 24 hours (Fig. S1C)
Description: C. Western blots for acetylated α-Tubulin, total α-Tubulin, p21 and GAPDH (loading control).
Cells were treated with vehicle control (0.1 % DMSO), 1 µM or 3 µM resminostat for 24 hours. Grouped blots were composed from cropped parts of individual blots for each antibody. Original blots with exposures and indicated cropped areas can be found in the supplementary information.
D. Cell line screen determining the EC50s of resminostat in 74 cell lines representing 14 different ca ncer indications. In addition, peripheral blood mononuclear cells (PBMCs) from healthy donors were tested. Each dot represents an EC50.
(100×, 78440; Thermo Scientific, Massachusetts, US). Following incubation for 1 h at 4°C, […]
The protein concentration of the
Fisher Scientific, Massachusetts, US ). Equal amounts of protein lysates and a pre-stained […]
US) and transferred to PVDF membranes. The membranes were probed using the relevant […]
of the blots to X-ray films. […]
to adjust brightness and contrast across entire images. No other image manipulations were […]
intracellular FACS staining.

[2] = tested on: PLC/PRF/5 and SNU-475 cells; assay: ELISA for growth factors PDGF-AA, TGF and VEGF; settings: tissue culture supernatants, with or without platelets (Fig. S4B)
Description: A. The growth factors PDGF-AA, TGFβ and VEGF were determined from tissue culture supernatants by ELISA. PLC/PRF/5 and SNU-475 cells were cultured with increasing […]
(1 picture or pasted object on this page, not shown here) […]
amounts of platelets. In parallel, platelets were cultured without cells to determine if the growth factors were platelet derived.
B. ELSIAs for PDGF-AA, TGFβ and VEGF were performed after drug treatment of PC/PRF/5 and SNU-475 cells. Cells were cultured as indicated with or without platelets and treated with resminostat, sorafenib, the drug combination or vehicle control 0.1% DMSO.
Table S1_ EC50 cell line screen
S1D. The cancer cell lines, their tissue origins and the respective EC50 values are shown.
Each cell line was seeded in duplicates.

[3] = tested on: A431; assay: Efficacy screening assay; settings: A431, skin; for pEC50: read-out: EC50
Description: (§1) The experiment was performed by Oncolead GmbH & Co. KG (Karlsfeld , Germany), based on a standardized screening procedure . Cell lines were purchased directly from the ATCC, NCI and DSMZ cell line c ollections. Cells used for the study had undergone less than 20 passages. To ensure the absence of potential contamination and wrong assignment, all cell lines were tested using a whole genome assay (Agilent, USA). All cell lines were grown as recommended by the suppliers and with addition of 100 U/mL penicillin G and 100 µg/mL; streptomycin. Cell growth and treatments were performed in Nunclon D 96 -well plates (NUNC, Germany). The optimal seeding density for each cell line was determined to ensure exponential growth for the duration of the experiment. All cells growing without anti-cancer agents were sub-conﬂuent by the end of the treatment, as determined by visual inspection.
(§2) After an initial 24 h pre-growth period, the compounds were added. The vehicle concentration […]
(§3) was 0.1% DMSO. After incubation at 37°C for 72 h, the culture medium was aspirated, and the cells were precipitated by the addition of 10% trichloroacetic acid (Sigma-Aldrich, Missouri, US). After overnight incubation at 4°C, the plates were washed three times with deionized water. The precipitates were then stained with SRB (0.4% wt/v sulforhodamine B solution in 1% acetic acid, Sigma-Aldrich, Missouri, US). Afterwards, the plates were washed six times with 1% acetic acid to remove unbound stain. After drying the plates at room temperature, the bound SRB was solubilized with 10 mM Tris base and the optical density was measured at 520 nm using a Victor2 plate reader (Perkin Elmer, Germany). Blank OD values were subtracted from mean OD values for each concentration. The nonlinear curve ﬁtting and EC50 calculations were per formed using XLﬁt and algorithm “205” (ID Business […]
(§4) one-way ANOVA and multiple comparison (Dunnett) was performed for compound treatments compared to vehicle control. The adjusted p-values with 95% confidence interval were reported as significant. For comparison of EC50 values in Figure 1F, one-way ANOVA with multiple comparison testing (Tukey) was performed. Multiplicity adjusted p -values for the EC50 with sorafenib versus resminostat for each cell line and comparison between cell lines for sorafenib are presented (95% confidence interval for significance testing). For comparison of EC50 data in Figure 2B, one-way ANOVA with multiple comparison testing (Tukey) was performed. Multiplicity adjusted p-values with 95% confidence interval was applied. For the invasion assays in Figure 4, one-way ANOVA with multiple comparison testing (Tukey) was performed. Multiplicity adjusted p-values with 95% confidence interval was applied. The adjusted p-values comparing vehicle control without vs. with platelets and compound

[4] = tested on: A549; assay: Efficacy screening assay; settings: A549, lung; for pEC50: read-out: EC50
Description: as §1, §2, §3, §4

[5] = tested on: BT20; assay: Efficacy screening assay; settings: BT20, breast; for pEC50: read-out: EC50
Description: as §1, §2, §3, §4

[6] = tested on: ACHN; assay: Efficacy screening assay; settings: 72 h, kidney; for pEC50: read-out: EC50
Description: (§5) In a two-step reaction, the substrate with the acetylated lysine side chain was incubated for with a sample containing HDAC activity to p roduce the deacetylated products: 1 h at 30°C for HDAC1, 2, 3 and 6; 30 min at RT for HDAC4, 5, 7 and 9; 2 h at 30°C for HDAC8, 10 and […]
(§6) (excitation) and 460 nm (emission). […]
as §1, §2, §3
(§7) For cell-based and other in vitro assays, data are presented as data mean ± SD of at least […]
(§8) For the orthotopic mouse model, data are presented as mean + SEM. For statistical analysis, one-way ANOVA and multiple comparison (Dunnett) was performed for compound treatments compared to vehicle control. The adjusted p-values with 95% confidence interval were reported as significant. For comparison of EC50 values in Figure 1F, one-way ANOVA with multiple comparison testing (Tukey) was performed. Multiplicity adjusted p -values for the EC50 with sorafenib versus resminostat for each cell line and comparison between cell lines for sorafenib are presented (95% confidence interval for significance testing). For comparison of EC50 data in Figure 2B, one-way ANOVA with multiple comparison testing (Tukey) was performed. Multiplicity adjusted p-values with 95% confidence interval was applied. For the invasion assays in Figure 4, one-way ANOVA with multiple comparison testing (Tukey) was performed. Multiplicity adjusted p-values with 95% confidence interval was applied. The adjusted p-values comparing vehicle control without vs. with platelets and compound

[7] = tested on: NCIH82; assay: Efficacy screening assay; settings: Homo sapiens, NCI-H82, NCIH82, lung, 72 h
Description: as §5, §6, §1, §2, §3, §7, §8

CN(C)Cc1ccc(S(=O)(=O)n2ccc(/C=C/C(=O)NO)c2)cc1 [resminostat, Resminostat]
acetylation of α-Tubulin [1]: hyperacetylation | p21 protein [1]: accumulation | growth factors released by platelets or secreted by HCC cells [2]: not consistantly affected | pEC50 ([3]; 72 h): 5.83 | EC50 ([3]; Homo sapiens, A-431, 72 h, log of EC50, negative, read-out: log(EC50) (converted)): 1480 nM | pEC50 ([3]; Homo sapiens, A-431, 72 h): 5.83 | pEC50 ([4]; 72 h): 5.46 | EC50 ([4]; Homo sapiens, A549, 72 h, log of EC50, negative, read-out: log(EC50) (converted)): 3470 nM | pEC50 ([4]; Homo sapiens, A549, 72 h): 5.46 | pEC50 ([5]; 72 h): 5.88 | EC50 ([5]; Homo sapiens, BT-20, 72 h, log of EC50, negative, read-out: log(EC50) (converted)): 1320 nM | pEC50 ([5]; Homo sapiens, BT-20, 72 h): 5.88 | EC50 ([6]; Homo sapiens, log of EC50, negative, read-out: log(EC50) (converted)): 1950 nM | pEC50 ([6]; Homo sapiens): 5.71 | pEC50 [6]: 5.71 | EC50 ([7]; log of EC50, negative, read-out: log(EC50) (converted)): 776 nM | pEC50 ([7]; read-out: EC50): 6.11
